Measured values: patent US11591298B2, “Bisaminoquinoline compounds, pharmaceutical compositions prepared therefrom and their use” (THE TRUSTEES OF THE UNIVERSITY OF PENNSYLVANIA, priority 2011, dated 2023)
Read-outs that look alike come from different tables or passages of the source.

Legend:
[1] = Acridine orange staining of acidic vesicles; format: cell-based; settings: 24 hours
mice [2] = settings: for mortality: daily i.p. for 48 hours, HCQ 60 mg/kg, Lys05 76 mg/kg
Protocol: (§1) Lys05, the trihydrochloride salt of Lys01 was synthesized to enhance aqueous solubility and to enable in vivo studies. […] To investigate the safety of Lys05 and its in vivo effects on autophagy, c8161 xenografts matched for tumor size were treated with intraperitoneal (i.p.) daily PBS, or equimolar doses of HCQ or Lys05 (HCQ 60 mg/kg (138 nmoles/g), Lys05 76 mg/kg (138 nmoles/g)) for 48 hours. […] After 48 hours of treatment mice were euthanized, and tumors were processed for electron microscopy (EM).

[3] = human, 24 h, 10 μM
Protocol: FIGS. 11A, 11B, 11C, 11D. […] (11B) Concentrations of HCQ or Lys05 in cells and tumor whole cell and lysosomal homogenates. […] Lysotracker puncta (red) per cell was scored for three high powered fields. Blue: nuclear DAPI staining. Data presented is mean+SEM (11D) Fluorescence imaging of c8161 cells treated as indicated for 24 hours and stained with acridine orange (AO): orange: Aggregated AO, green: diffuse AO
FIG. 12. High performance liquid chromatography tandem mass spectrometry assay for HCQ and Lys05. 1205Lu cells (24 hours) and 1205Lu tumors (14 days). WC: Whole cell homogenate L: Lysosomal subfraction HCQ: Hydroxychloroquine

1205Lu xenografts = test: 1205Lu xenograft antitumor activity (14 days); format: in vivo, nude mice; settings: for increase in AV/cell compared to control treated tumors: end of 14 days of treatment, HCQ 60 mg/kg
LN229 GFP-LC3 cells [4] = test: GFP-LC3 puncta imaging in LN229 GFP-LC3 cells; format: cell-based, human; settings: within 4 hours
LN229 GFP-LC3 cells [5] = test: Bafilomycin clamp experiment (LC3 immunoblotting); format: cell-based, human; settings: 24 hours; HCQ 10 μM, Lys01 10 μM, rapamycin
Protocol: (§2) FIGS. 4A, 4B, 4C, 4D. Autophagy inhibition and cytotoxicity of Lys01 compared to HCQ (4A) Representative images of LN229 GFP-LC3 cells treated as indicated for 4 hours. White arrows: small puncta; red arrows: dense puncta. Graphs show mean+/−SEM puncta/cell. (4B) Representative electron micrographs of LN229-GFP-LC3 cells treated (4 hours) with DMSO, HCQ 10 μM, or Lys01 10 μM Arrows: Autophagic vesicles. (4C) LC3 immunoblotting of LN229 cells treated for 24 hours an indicated; calculated ratio of LC3II/LC3I ratios for bafilomycin versus control co-treatment. Above the dashed line indicates an autophagy inducer or control, below the dashed line indicated an autophagy inhibitor. (4D) MTT assay (72 hours) for 4 cell lines. Red: Lys01, Blue: Lys02, Purple: Lys03 Green: Lys04 Orange: HCQ. Values presented are means+/−SEM with 5 replicates per treatment.
To further characterize the effects of Lys01 on autophagy, LN229 GFP-LC3 cells were treated with Lys01 or HCQ (FIG. 4A). […] Electron micrographs of LN229 GFP-LC3 cells treated with DMSO, HCQ, or Lys01 further characterized the significant morphological difference in the size and number of vesicles produced by blockade of autophagy with these agents (FIG. 4B). Thus, Lys01 produces morphological changes more pronounced than HCQ, a known lysosomal inhibitor, at 10-fold lower concentrations. […]

[6] = format: cell-based; settings: within 30 minutes
[7] = tested on: LN229 (glioma), 1205Lu (melanoma), HT-29 (colon) and c8161 (melanoma) cells; test: MTT assay (72 hours) in 4 cell lines; format: cell-based; settings: range over the 4 cell lines tested
Protocol: as §2, with “Autophagy inhibition and cytotoxicity of Lys01 compared to HCQ (4A) Representative images of LN229 GFP-LC3 cells treated as indicated for 4 hours.” left out, “Above the dashed line indicates an autophagy inducer or control, below the dashed line indicated an autophagy inhibitor.” left out
The MTT assay was used to assess viable cells at 72 hours.

[8] = tested on: LC3II/LC3I ratio in LN229 cells; test: LC3 immunoblotting (LC3II/LC3I ratio) in LN229 cells; format: cell-based, human; settings: 4 hours
Protocol: FIG. 3. Effects of Lys01-Lys04 on LC3 immunoblotting Immunoblotting and quantification of LC3II/LC3I ratio in lysates from LN229 cells treated for 4 hours. The graphs show (mean+/−SD) LC3II/LC3I ratios of each treatment normalized to the LC3II/LC3I ratio of control treated cells for each experiment.
LN229 (human glioblastoma) were treated with Lys01 and derivatives Lys02, Lys03, Lys04, HCQ and CQ. […] LC3 is a ubiquitin-like protein which exists as an unconjugated form (LC3I) or conjugated to AV membranes (LC3II) (25). The ratio of LC3II/LC3I reflects the accumulation of AV in cells, and therefore effective autophagy inhibition.

mice [9] = tested on: mice
mice [10] = settings: mouse, in vivo, ip, 76 mg/kg
Protocol: For chronic treatment experiments the 1205Lu melanoma model was chosen over the c8161 xenograft model because c8161 xenografts tend to spontaneously ulcerate confounding tumor measurements and safety analysis. Ten mice bearing 1205Lu xenografts were matched for tumor volume per cohort were assigned to either PBS, HCQ 60 mg/kg i.p. or Lys05 76 mg/kg i.p. (equimolar dosing) dosed for 3 days of daily treatment with 2 days off treatment (3/5 days) for all 3 treatment groups, to allow for symptom recovery and to avoid excess toxicity.
Paneth cell dysfunction, including reduced size and number of eosinophilic lysozyme-containing granules, has previously been described as the pathognomonic sign of autophagy deficiency in mice and a subset of Crohn's disease patients that have a genetic deficiency in the essential autophagy gene ATG16L1 (31).

acid phosphatase [11] = settings: 1205Lu xenograft tumors; after 14 days of treatment
[12] = tested on: HT-29 colon cancer xenografts
Protocol: (§3) FIGS. 6A, 6B, 6C, 6D, 6E, 6F, 6G. […] (6A) Representative electron micrographs (12,000×) of c8161 xenograft tumors harvested after 2 days of daily i.p. treatment with PBS, HCQ 60 mg/kg, or Lys05 76 mg/kg. Arrows: autophagic vesicles; scale bar 2 μm (6B) Quantification of mean+SEM number of autophagic vesicles/cell from two representative tumors from each treatment group. (C-D) 1205Lu xenografts were treated with PBS (blue), HCQ 60 mg/kg ip (green), or Lys05 76 mg/kg (red) i.p. every 3/5 days. (6C) Tumor volumes over 14 days (6D) Daily tumor growth rate. (E-G) HT29 xenografts were generated in the flanks of nude mice and treated with PBS, Lys05 10 mg/kg/ip daily, Lys05 40 mg/kg ip daily, or Lys05 80 mg/kg ip every 3/5 days. (6E) Average daily tumor growth rate. (6F) Tumor volumes over 14 days.
(§4) FIGS. 7A, 7B, 7C. […] (7A) Immunoblotting against LC3 in lysates from individual c8161 tumors treated as indicated with daily i.p. injections for 48 hours. […] Arrows: Autophagic vesicle (white); apoptotic cell (orange) (7C) Immunoblotting against LC3 in HT29 xenografts treated with daily dosing (10, 40 mg/kg) or 3/5 days (80 mg/kg) for 14 days.

acid phosphatase [13] = settings: 1205Lu cells; 10 μM; within 24 hours
c8161 xenografts = tested on: c8161 xenografts
Protocol: as §3, §4, §1

c8161 cells [14] = test: MTT assay in c8161 cells at 72 hours; format: cell-based; settings: Lys01 versus Lys05
Protocol: (§5) FIGS. 5A, 5B. […] (5A) Immunoblotting against LC3 and p62 in c8161 cells treated as indicated (5B) MTT assay in c8161 cells at 72 hours. HCQ: Hydroxychloroquine.
as §1

c8161 cells [15] = test: Immunoblotting against LC3 and p62 in c8161 cells; format: cell-based; settings: Lys01 versus Lys05
Protocol: as §5, §1

cathepsin D [16] = settings: 1205Lu cells; within 24 hours; compared to HCQ- or PBS-treated cells
cathepsin D [17] = settings: 1205Lu xenograft tumors; 14 days

CCN(CCO)CCCC(C)Nc1ccnc2cc(Cl)ccc12 (stereo not shown) [HCQ, hydroxychloroquine, reference compound]
acidic vesicles (acridine orange) ([1]; dose range): dose-dependent accumulation of acidic vesicles
mortality (mice [2]): no mice died
concentration in the lysosomal fraction [3]: 13 µM
concentration in the whole cell homogenate [3]: 8 µM
increase in AV/cell compared to control treated tumors (1205Lu xenografts; Lys05 76 mg/kg i.p. 3/5 days): 3 fold
GFP-LC3 punctate fluorescence (LN229 GFP-LC3 cells [4]; 1 μM): observed in a minority of cells
GFP-LC3 punctate fluorescence (LN229 GFP-LC3 cells [4]; 10 μM): numerous small puncta
GFP-LC3 punctate fluorescence (LN229 GFP-LC3 cells [4]; 100 μM): larger dense puncta
LC3II/LC3I ratio in bafilomycin treated cells compared to control cells (LN229 GFP-LC3 cells [5]): did not demonstrate an increase
Lysotracker-positive puncta ([6]; 10 μM): not observed
Lysotracker-positive puncta ([6]; 100 μM): significant decrease
IC50 [7]: 15 to 42 µM

CN(CCN)CCNc1ccnc2cc(Cl)ccc12 [Lys02]
IC50 [7]: 35 to 91 µM

COc1ccc2c(NCCN(C)CCNc3ccnc4cc(OC)ccc34)ccnc2c1 [Lys03]
IC50 [7]: 24 to 53 µM

Clc1ccc2c(NCCOCCOCCNc3ccnc4cc(Cl)ccc34)ccnc2c1 [Lys04]
dose-response relationship / potency in LC3 autophagy assay [8]: intermediate potency
IC50 [7]: 10 to 17 µM

CN(CCNc1ccnc2cc(Cl)ccc12)CCNc1ccnc2cc(Cl)ccc12.Cl.Cl.Cl [Lys05]
acidic vesicles (acridine orange) ([1]; 10 μM): accumulation of acidic vesicles
acidic vesicles (acridine orange) ([1]; 50 μM): no acidic vesicles were observed
mice euthanized early for bowel obstruction (mice [9]; 80 mg/kg i.p. 3/5 days): 2/8
bowel thickening and obstruction (mice [9]; mouse, in vivo): limited to 80 mg/kg dose cohort
clinical signs (mice [10]): lethargic with arched backs
histology of the ileum: Paneth cells (mice [10]): dysmorphic Paneth cells
mortality (mice [2]): no mice died
clinical signs (mice [2]; mouse, in vivo, ip, 76 mg/kg): arched backs and lethargy
increase in extralysosomal acid phosphatase activity (acid phosphatase [11]): 1.75 fold
excised tumor weights ([12]; 10 mg/kg daily dosing, end of the experiment): significant antitumor activity
average daily tumor growth rate ([12]; 10, 40 mg/kg i.p. daily, 80 mg/kg i.p. 3/5 days): significantly impaired in a dose-dependent fashion
LC3II/LC3I ratio in tumor lysates compared to control ([12]; after 14 days, all Lys05 doses including 10 mg/kg): significant increase
tumor growth curves compared to control ([12]; all 3 doses of Lys05): significant tumor growth impairment
reduction in acid phosphatase activity in the lysosomal fraction versus PBS treated cells (acid phosphatase [13]): 43%
LC3II/LC3I levels in tumors compared to control- or HCQ-treated tumors (c8161 xenografts; 76 mg/kg i.p. daily, 48 hours): Significantly higher
increase in the mean number of AV/cell compared to control- or HCQ-treated tumors (c8161 xenografts; Lys05 76 mg/kg i.p. daily, 48 hours, electron microscopy): > 2 fold
cleaved caspase 3 levels compared to HCQ- or PBS-treated tumors (c8161 xenografts; after 48 hours of treatment): elevated
tumor growth (growth curves) compared to controls (1205Lu xenografts; Lys05 76 mg/kg i.p. 3/5 days, 14 days): significantly impaired
reduction in the average daily tumor growth rate compared to vehicle treated controls (1205Lu xenografts; Lys05 76 mg/kg i.p. 3/5 days, p=0.002): 53%
average daily tumor growth rate (1205Lu xenografts; Lys05 76 mg/kg i.p. 3/5 days, vehicle 31.2): 14.6 mm^3/day
tumor necrosis (1205Lu xenografts; center of tumors, after 14 days): Extensive tumor necrosis
increase in AV/cell compared to control treated tumors (1205Lu xenografts; Lys05 76 mg/kg i.p. 3/5 days): 6 fold
LC3II/LC3I ratio in bafilomycin treated cells compared to control cells (LN229 GFP-LC3 cells [5]): did not demonstrate an increase
IC50 values in the MTT assay (c8161 cells [14]): identical
Lysotracker-positive puncta ([6]; 10 μM): fewer Lysotracker-positive puncta
Lysotracker-positive puncta ([6]; 100 μM): fewer Lysotracker-positive puncta
LC3II/LC3I ratio (c8161 cells [15]): equivalent dose-dependent increases
autophagy cargo protein p62 (c8161 cells [15]): accumulation
acid-dependent processing of immature cathepsin D to the mature activated form within the lysosome (cathepsin D [16]): decreased acid-dependent processing
increased acid-dependent processing of cathepsin D within the whole cell homogenate (cathepsin D [17]): not observed
